Measurements taken from the NIST ThermoML archive (doi:10.1021/je050010l).

Test: xn = mol fraction of the nth substance listed
Details: 100.8 kPa, Liquid; for viscosity: Capillary tube (Ostwald / Ubbelohde) method

CC(C)CC(C)(C)C [2,2,4-trimethylpentane] + CCO
Details | mass density, 288.15 K [kg/m3] | mass density, 298.15 K [kg/m3] | mass density, 308.15 K [kg/m3] | viscosity, 298.15 K [mPa·s] | viscosity, 308.15 K [mPa·s]
x2 = 0 | – | 687.74 | 679.41 | 0.48 | 0.432
x2 = 0.0502 | – | 688.84 | 680.36 | 0.473 | 0.424
x2 = 0.1 | – | 690.33 | 681.76 | 0.476 | 0.426
x2 = 0.15 | – | 692.11 | 683.52 | 0.48 | 0.429
x2 = 0.2 | – | 694.07 | 685.43 | 0.487 | 0.434
x2 = 0.25 | – | 696.21 | 687.56 | 0.497 | 0.441
x2 = 0.3 | – | 698.57 | 689.88 | 0.51 | 0.451
x2 = 0.35 | – | 701.17 | 692.45 | 0.526 | 0.462
x2 = 0.4 | – | 704.03 | 695.3 | 0.543 | 0.476
x2 = 0.45 | – | 707.2 | 698.44 | 0.565 | 0.492
x2 = 0.5 | 719.31 | 710.68 | 701.91 | 0.588 | 0.51
x2 = 0.55 | 723.22 | 714.59 | 705.8 | 0.615 | 0.531
x2 = 0.6 | 727.55 | 718.9 | 710.11 | 0.645 | 0.554
x2 = 0.65 | 732.37 | 723.73 | 714.93 | 0.677 | 0.58
x2 = 0.7 | 737.81 | 729.14 | 720.34 | 0.715 | 0.609
x2 = 0.75 | 743.99 | 735.34 | 726.54 | 0.755 | 0.642
x2 = 0.8 | 751.11 | 742.37 | 733.58 | 0.801 | 0.678
x2 = 0.85 | 759.27 | 750.54 | 741.75 | 0.854 | 0.72
x2 = 0.9 | 768.81 | 760.17 | 751.44 | 0.915 | 0.769
x2 = 0.95 | 780.26 | 771.59 | 762.84 | 0.991 | 0.828
